Measured values from ChEMBL document CHEMBL1128923, “A simple synthesis of biaryl phospholipase A2 inhibitors: Probing hydrophobic effects” (Bioorg Med Chem Lett, 1996).

Assays:
Mus musculus = experiment: Effective dose to reduce mouse ear edema in a phorbol ester induced inflammation assay; type: functional
[1] = target: T1, Phospholipase A2, membrane associated (Homo sapiens, UniProt P14555); experiment: Compound was evaluated for inhibition of human platelet phospholipase A2 (HP-PLA2).
T1 sequence (P14555 whole entry): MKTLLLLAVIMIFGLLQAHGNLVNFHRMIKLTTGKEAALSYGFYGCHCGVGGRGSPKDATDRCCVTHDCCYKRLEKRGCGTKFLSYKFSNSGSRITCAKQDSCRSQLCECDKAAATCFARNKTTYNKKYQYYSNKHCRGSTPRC

[2] = target: T2, Phospholipase A2, membrane associated (Homo sapiens) (UniProt P14555); experiment: Compound was evaluated for inhibition of phospholipase A2 (PLA2) isolated from human platelets at a concentration of 100 uM
T2 sequence (whole entry): T1 sequence (P14555 whole entry)

[3] = target: T2, Phospholipase A2, membrane associated (Homo sapiens); experiment: Compound was evaluated for inhibition of phospholipase A2 (PLA2) isolated from human platelets at a concentration of 10 uM

SMILES | ED50 (Mus musculus) [ug ear-1] | IC50 [1] [µM] | inhibition [2] [%] | inhibition [3] [%]
CC1=C(/C=C/C(C)=C/C=C(/C(C)=C/C(=O)O)c2cccc(C(=O)O)c2)C(C)(C)CCC1 | 160 | 40 |  | 
CCCCCCCCCCOc1ccc(NC(=O)c2ccccc2-c2ccccc2C(=O)O)cc1OCC(=O)O |  |  | 23 | 2
CC(C)c1ccc2c(c1)CC[C@H]1C[C@](C)(CNC(=O)c3ccccc3-c3ccccc3C(=O)O)CC[C@]21C |  |  | 63 | 6
O=C(O)c1ccccc1-c1ccccc1C(=O)NC1CCCCCCC1 |  |  | 15 | 2
CCCCCCCCCCc1ccc(NC(=O)c2ccccc2-c2ccccc2C(=O)O)cc1 |  |  | 92 | 26
O=C(O)c1ccccc1-c1ccccc1C(=O)NCCc1c[nH]c2ccc(O)cc12 |  |  | 0 | 0
CC1(C)CCC(C)(C)c2cc(NC(=O)c3ccccc3-c3ccccc3C(=O)O)ccc21 |  |  | 35 | 14
CCCCCCCCCCOc1ccc(NC(=O)c2ccccc2-c2ccccc2C(=O)O)cc1OCCCCCCCCCC |  |  | 98 | 85
O=C(O)c1ccccc1-c1ccccc1C(=O)Nc1ccc2ccccc2c1 |  |  | 8 | 2
